Experimental data published in patent EP2229935A1, “Peptide derivatives or pharmaceutically acceptable salts thereof, method for producing the same, use of said derivatives and pharmaceutical composition” (Nebolsin, Vladimir Evgenievich, priority 1997, dated 1999).
Marks after values point to notes of the source that are not given here.

Tests used:
mongrel guinea-pigs [1] = test: Food anaphylaxis (active anaphylactic shock) in OVA-sensitized guinea pigs; details: oral 3 days before provoking anaphylaxis, 50 µg/kg
mongrel rats = test: Antiischemic activity: necrosis zone after coronary artery occlusion (myocardial infarction); format: in vivo; details: 4 hours after coronary artery occlusion, oral 4 days
Procedure: Antiischemic activity of a compound was assessed by an integral test, i.e. effect on the necrosis zone area following reproduction of myocardial infarction in mongrel rats weighing 250-300 g.
Effect of a compound on the necrosis zone area was studied in 4 hours after arterial occlusion in rats using a differential indicator method [Sernov L.N., Gatsura V.V. A differential indicator method for determinig ischemic and necrotic zone in experimental myocardial infarction in rats. Bulletin of Experimental Biology and Medicine (1989), No 5, pp. 534-535]. All the painful manipulations were performed on animals under Ethaminal anesthesia (Ethaminal - 40 mg/kg intraperitoneally). Experiment was carried out in 15 hours after the last compound administration. Each group included 8 animals.
Groups of animals: • Group 1 - intact control -administration of normal saline four times. • Groups 2 and 3 - oral administration of the compound III at doses respectively 50 and 500 µg/kg for 4 days. • Group 4 - single intraperitoneal administration of Nicorandil at a dose 1 mg/kg immediately after occlusion.

[2] = test system: thromboxane A2 and prostacycline; test: Prostacycline to thromboxane ratio in mice with Lewis pulmonary carcinoma; format: in vivo, C57B1 male mice; details: mice with transplanted Lewis carcinoma, day 24; 500 µg/kg per day in drinking water
Procedure: Experiments were carried out on C57B1 male mice weighing 18-20 g. Lewis pulmonary carcinoma (generation 3) transplantation was performed according to a conventional technique [Experimental estrimation of antitumor drugs in the U.S.S.R. and the U.S.A. edited by E.P.Sof'ina, A.B.Syrkin, A.Goldin, A.Kline. Moscow, Meditsina publishers (1980), 296 pp.]. Each group included 8 animals. Administration of compound III at a dose 500 µg/kg per day in drinking water was commenced since 24 hours after tumor transplantation.
Determination of thromboxane A2 and prostacycline was done according to the technique described in example 35. By day 24 of experiments animals were sacrified and the test parameters were determined.
Groups of animals: • Group 1 - intact control. • Group 2 - mice with transplanted Lewis carcinoma. • Group 3 - mice with transplanted Lewis carcinoma + compound III.

mongrel mice = test: Acute hypobaric hypoxia model (AHBH); format: in vivo; details: oral 4 days; for Effect in percent: lifetime relative to control; for Lifetime under hypoxic conditions (minutes): mice, 170-185 mm Hg
Procedure: The tests of determining average lifetime of animals in a closed volume and on the model of acute hypobaric hypoxia at the minimum atmospheric rarefaction (170-185 mm Hg) were used to study antihypoxic activity of the compunds of general formula (I).
Simulation of AHBH was done in a flow-through chamber at temperature 22°C. Experiments were carried out on mongrel mice with initial body mass 20 g at the minimum rarefaction 170-185 mm Hg, that corresponds to the altitude of 10500-11000 m. Lift rate was 35 m/second. Each group included 15 animals. Compounds were administered orally, lift on to altitude was performed 2 hours after the last administration.
Groups of animals: • Group 1 - intact control -administration of normal saline four times. • Groups 2 and 3 - administration of the compound III at doses 50 and 500 µg/kg for 4 days. • Group 4 - single administration of sodium oxybutyrate at a dose […].

[3] = test system: Lewis pulmonary carcinoma (LLC); test: LLC metastasizing: compound III substance versus tabletted dosage form; format: in vivo, C57BL/6 female mice; details: C57BL/6 mice with LLC; oral 500 µg/kg (active basis) daily day 1-10; 24 days
Procedure: To estimate therapeutic efficacy of compound III tabletted dosage form (0.2 g tablets 6 mm in diameter comprising 17 mg substance) studies were carried out on the model of spontaneous LLC carcinoma metastasizing.
Experiments were carried out on C57BL/6 female mice weighing 20-25 g. Experimental groups included 8 animals and the control group 11 mice. Substance and dosage form of compound III were administered orally at a dose 500 µg/kg (at a rate per an active basis) daily from day 1 till day 10 of experiment. Experiment lasted for 24 days.

white mongrel male rats [4] = test: Carrageenan paw edema, cutaneous gel application (series 2); format: in vivo
Procedure: (§1) Experiment was carried out on white mongrel male rats weighing 280-300 g. Carrageenan-induced edema was caused according to the method of Winter et al. [[inter et al. In: De Rosa M., Giroud J.P., Willoughby D.A. Studies of the mediators of the acute inflammatory reponse induced in rats in different sites by carrageenan and turpentine. […] Paw volume measurement was done using a plethysmograph (Ugo Basile) 1, 3 and 4 hours after carrageenan administration. Inhibition of inflammatory reaction expressed in percent, was calculated according to the formula: 100-[(R-L(exper.))/(L):(R-L(control))/(L)x100](%) [formula] where R - the right paw volume, L - the left paw volume.
Series 2 of experiment. 2% carrageenan solution was injected sublaterally into paws of rats. In 1 minute 0.1 ml of gel comprising the test compounds were applied on the right paw. Gel base consisted of propylene glycol dissolved in the mixture of water and ethanol. Concentration of the compounds in the gel was 1%. Volume of paws was measured 4 hours after carrageenan administration.

white mongrel male rats [5] = test: Carrageenan paw edema, oral administration (series I); format: in vivo
Procedure: as §1
Series I of experiment. […] The reference drug Naproxene was once administered at a dose 20 µg/kg 1 hour before edema induction. Each group included 10 animals.

mongrel guinea-pigs [6] = details: po, 0.05 mg/kg
mongrel male rats = test: Hypolipidemic activity: experimental hyperlipidemia (atherogenic load); details: atherogenic diet, oral last four days, 50 µg/kg;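 further: serum drawn 18 h after the final dose from rats deprived of food over that interval, groups of 10 animals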
Procedure: Hypolipidemic activity of the compounds of general formula (I) was studied on the model of experimental hyperlipidemia [Arichi H., Kumura H.O. Effects of stibens compounds of roots of polygonum cuspidatium on the lipid metabolism. […] Each group of animals included 10 rats. […] Blood samples were taken for analysis 18 hours after the last administration of the test substances during which period food was taken away from rats.
The following parameters were determined: total cholesterol (total CS); high density lipoprotein cholesterol (HDL-CS); low density lipoprotein cholesterol and very low density lipoprotein cholesterol (LDL-CS and VLDL-CS); triglycerides (TG). Blood serum CS level was determined according to the Ilk method [Biochemical examination in the clinic. […] HDL-CS level was measured in supernatant following heparine-manganese precipitation of LDL+VLDL [Titov V.N., Brener E.D., Khaltaiev N.G., Zadoya A.A., Tvorogova M.G. A method and diagnostic significance of cholesterol level study in α-lipoproteins. […] LDL-CS level determination was carried out by calculation according to the formula presented in the work Friedwald W.T. [Friedwald W.T., Levy K.J., Leus R. Fat transport in lipoproteins: an integrated approach to mechanism and disorders.
To assess the effect of the test compounds on the ratio of atherogenic and antiatherogenic blood serum lipoproteins, cholesterol index (Kcs) was calculated according to the formula presented in the work [Klimov A.N., Nikulcheva N.G. Lipoproteins, dylipoproteinemias and atherosclerosis.
Blood serum TG level was determined using the conventional method [Friedwald W.T., Levy R.I., Fredrickson D.S. Estimation of concentration of low-density lipoprotein cholesterol in plasma, without use of preparative ultracentrifuge.

[7] = intragastral four times 50 µg/kg

O=C(O)CCCC(=O)NCCc1c[nH]cn1 [compound III, N-GLUTARYLHISTAMINE]
Lethality in percent (mongrel guinea-pigs [1]): 6.7** percent
Ischemia zone, percent to the total myocardial mass (mongrel rats; 50 µg/kg): 27,2 ± 2,8%
Necrosis zone percent to myocardial zone (mongrel rats; 50 µg/kg): 56,8 ± 2,7%
Necrosis zone, percent to the total myocardial mass (mongrel rats; 50 µg/kg): 15,4 ± 1,7%
Ischemia zone, percent to the total myocardial mass (mongrel rats; 500 µg/kg): 31,1 ± 3,1%
Necrosis zone percent to myocardial zone (mongrel rats; 500 µg/kg): 54,3 ± 2,1%
Necrosis zone, percent to the total myocardial mass (mongrel rats; 500 µg/kg): 17,8 ± 1,0%
Prostacycline [2]: 5.80 ± 0.75*^2
Ratio 6-keto-PGF1α :TXB2 [2]: 0.80 ± 0.11*^2
Thromboxane A2 [2]: 7.23 ± 0.18*^C
Effect in percent (mongrel mice; 50 µg/kg): 105 ± 3,5%
Effect in percent (mongrel mice; 500 µg/kg): 113 ± 5,2%
Lifetime under hypoxic conditions (minutes) (mongrel mice; 50 µg/kg): 322,0 ± 10,9 minutes
Lifetime under hypoxic conditions (minutes) (mongrel mice; 500 µg/kg): 345,3 ± 15,9 minutes
Mean number of metastases [3]: 22.5 ± 0.9
Metastasizing inhibition percent [3]: 46.4%
Metastasizing rate in percent [3]: 100%
Tumor mass [3]: 12.9 ± 0.9 g
Volume of paws (conditional units) Right (white mongrel male rats [4]; 0.1 ml of 1% gel on right paw, 4 hours after carrageenan): 2.13 ± 0.64 conditional units
Volume of paws (conditional units) left (white mongrel male rats [4]; 1% gel group, left paw, 4 hours): 1.83 ± 0.21 conditional units
Inflammation inhibition (%) (white mongrel male rats [4]; 1% gel, 4 hours): 60%
Volume increment (white mongrel male rats [4]; 1% gel, 4 hours): 0.30 ±0.06*^l
Inflammation inhibition (%) (white mongrel male rats [5]; [7]): 30%
Volume increment (white mongrel male rats [5]; [7]): 0.49 ± 0.07
Volume of paws (conditional units) left (white mongrel male rats [5]; [7]): 1.23 ± 0.41 conditional units
Volume of paws (conditional units) Right (white mongrel male rats [5]; intragastral four times 50 µg/kg 72, 48, 24 and 1 hour before): 1.72 ± 0.27 conditional units
Anaphylactic index (mongrel guinea-pigs [6]): 0.83*
Seizures in percent (mongrel guinea-pigs [6]): 13,3* percent

γ-L-glutamylhistamine [compound XLIV]
HDL-CS (mongrel male rats; blood): 47,3±1,1***^A
LDL-CS+ VLDL-CS (mongrel male rats; blood): 37,4±1,1***^A
Total CS (mongrel male rats; blood): 84,7±3,0**^A
Triglycerides (mongrel male rats; blood): 85,0±6,3***^A
Kcs (mongrel male rats; cholesterol index): 0,79±0,02***^A
